The values below come from patent US11000033B2, “Ketone or oxime compound, and herbicide” (NISSAN CHEMICAL CORPORATION, priority 2014, dated 2021).

Format in all cases: in vivo
Data set [1] has as its system Scirpus juncoides. Kind of data set: Test Example 2: herbicidal activity, application during weed generation in submerged conditions (symbol B). Particulars: Table 23; application herbicide amount 320 g/ha; grade 0-5 by criteria of Test Example 1. Put shortly: (§1)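 Read-out: herbicidal effect on each species rated on a visual scale 3 weeks after treatment. Plants were raised together from seed in flooded alluvial soil (4 cm water) at 25° C. to 30° C. and treated at one to two leaves by water-surface application of diluted emulsion.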

In a further data set the test system is corn. Put plainly: Test Example 5: effect on crop by foliage application, plastic box (symbol c). The note with it: 320 g/ha, 3 weeks after application. Put shortly: (§2)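 Greenhouse culture at 25° C. to 30° C. followed spot-like sowing into sterilized diluvial soil, with seed covered by roughly 1.5 cm of soil.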
In a further data set the test system is rapeseed. Put plainly: Test Example 5: effect on crop by foliage application, plastic box (symbol g). The note with it: 320 g/ha, 3 weeks after application. Put shortly:
as §2

For data set [2], the system named is Echinochloa oryzacola Vasing. Kind of data set: Test Example 2: herbicidal activity, application during weed generation in submerged conditions (symbol A). Particulars: Table 23; application herbicide amount 320 g/ha; grade 0-5 by criteria of Test Example 1. The method, boiled down:
as §1

For data set [3], the system named is Alopecurus myosuroides. Kind of data set: Test Example 5: herbicidal effect by foliage application, plastic box (symbol J). The note with it: 320 g/ha, 3 weeks after application. The method, boiled down: (§3)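 After sowing into sterilized diluvial soil and growing two weeks under glass at 25° C. to 30° C., seedlings receive a uniform foliar spray of diluted emulsion. Damage is judged visually three weeks on.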

Data set [4] has as its system Apera spica-venti. Put plainly: Test Example 4: herbicidal effect by soil treatment (symbol L). The method, boiled down:
(§4)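 Seeds were sown in sterilized diluvial soil, covered with about 1.5 cm of soil, and the soil surface was sprayed with a water-diluted emulsion of the compound at a predetermined rate. Plants grew in a greenhouse at 25° C. to 30° C.; effects were scored visually 3 weeks after application.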

The next data set deals with Cyperus difformis. Kind of data set: Test Example 3: herbicidal effect by foliage application, Wagner pot (symbol E). Particulars: application herbicide amount 320 g/ha; for E herbicidal effect grade: Table 24. The method, boiled down: (§5)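 Scoring took place 3 weeks after application, using fixed criteria. Plants had been raised from seed for 14 days at 25 to 30 °C in submerged alluvial soil before a diluted emulsion of the test compound was sprayed uniformly on the leaves.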

Data set [5] has as its system Alopecurus myosuroides. Kind of data set: Test Example 4: herbicidal effect by soil treatment (symbol J). The method, boiled down: as §4
In another data set the test system is Avena fatua. Kind of data set: Test Example 4: herbicidal effect by soil treatment (symbol I). Put shortly: as §4
In data set [6] the test system is Apera spica-venti. Kind of data set: Test Example 5: herbicidal effect by foliage application, plastic box (symbol L). Particulars: 320 g/ha, 3 weeks after application. Put shortly: as §3
A further data set concerns Abutilon theophrasti. Put plainly: Test Example 4: herbicidal effect by soil treatment (symbol M). Put shortly: as §4
Data set [7] has as its system Scirpus juncoides. Put plainly: Test Example 1: herbicidal activity, application before weed generation in submerged conditions (symbol B). Particulars: application herbicide amount 320 g/ha. The method, boiled down:
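Scores run 0 to 5 by herbicidal ratio, with 5 meaning 90% or more and 0 meaning 5% or lower, read 3 weeks after treatment. Compound was applied as a diluted emulsion to the water surface of submerged alluvial-soil pots on the day weed seeds were sown.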

The next data set deals with Veronica persica. Kind of data set: Test Example 4: herbicidal effect by soil treatment (symbol R). The method, boiled down:
as §4

A further data set has as its system Setaria viridis. Put plainly: Test Example 4: herbicidal effect by soil treatment (symbol G). Put shortly:
as §4

A further data set has as its system Chenopodium album. Kind of data set: Test Example 4: herbicidal effect by soil treatment (symbol O). Put shortly:
as §4

Data set [8] deals with Echinochloa crus-galli var. crus-galli. Kind of data set: Test Example 3: herbicidal effect by foliage application, Wagner pot (symbol H). The note with it: application herbicide amount 320 g/ha; for H (Echinochloa crus-galli var. crus-galli) herbicidal effect grade: Table 24. The method, boiled down:
as §5

Setting [9] is: application herbicide amount 320 g/ha.

With `CCC(=O)CC1CC(O)=C(c2c(C)cc(Br)cc2OC)C1=O` (racemic) [14-002], the “Herbicidal effect grade, B: Scirpus juncoides” value (“Herbicidal effect grade, B” below) in the data set with Scirpus juncoides [1] is 0 (Herbicidal ratio of 5% or lower (almost no effect)). Moreover, in the data set with corn, the “c: corn, effect on crop grade” value is given as 5 (Herbicidal ratio of 90% or more (almost completely withered)). In addition, the “g: rapeseed, effect on crop grade” value in the data set with rapeseed is 4 (Herbicidal ratio of 70% or higher and lower than 90%). Further, the “Herbicidal effect grade, A: Echinochloa oryzacola Vasing.” value in data set [2] is 5 (Herbicidal ratio of 90% or more (almost completely withered)). Also, the “J: Alopecurus myosuroides, herbicidal effect grade” value was 5 (Herbicidal ratio of 90% or more (almost completely withered)) in the data set with Alopecurus myosuroides [3]; 4 (Herbicidal ratio of 70% or higher and lower than 90%) in the data set on Alopecurus myosuroides [5] (setting [9]). The “L: Apera spica-venti, herbicidal effect grade” value in the data set with Apera spica-venti [4] (setting [9]) and with Apera spica-venti [6] was 5 (Herbicidal ratio of 90% or more (almost completely withered)) throughout. For the same compound, the “E herbicidal effect grade” value in the data set with Cyperus difformis is given as 5 (Herbicidal ratio of 90% or more (almost completely withered)). Also, the “I: Avena fatua, herbicidal effect grade” value in the data set on Avena fatua (setting [9]) was 0 (Herbicidal ratio of 5% or lower (almost no effect)). In addition, in the data set on Abutilon theophrasti (setting [9]), the “M: Abutilon theophrasti, herbicidal effect grade” value is reported as 0 (Herbicidal ratio of 5% or lower (almost no effect)). The “B (Scirpus juncoides) herbicidal effect grade” value in the data set on Scirpus juncoides [7] was 1 (Herbicidal ratio of 5% or higher and lower than 20%). In the data set with Veronica persica (setting [9]), the “R: Veronica persica, herbicidal effect grade” value is listed as 0 (Herbicidal ratio of 5% or lower (almost no effect)). In addition, in the data set on Setaria viridis (setting [9]), the “G: Setaria viridis, herbicidal effect grade” value is listed as 5 (Herbicidal ratio of 90% or more (almost completely withered)). In addition, the “O: Chenopodium album, herbicidal effect grade” value with Chenopodium album (setting [9]) was 0 (Herbicidal ratio of 5% or lower (almost no effect)). For the same compound, the “H (Echinochloa crus-galli var. crus-galli) herbicidal effect grade” value in data set [8] is recorded as 5 (Herbicidal ratio of 90% or more (almost completely withered)).
`CC#Cc1cc(C)c(C2=C(O)CC(CC(C)=NOCC(F)(F)F)C2=O)c(C)c1` (stereo not shown) [9-011]: in the data set on Scirpus juncoides [1], the “Herbicidal effect grade, B” value is recorded as 5 (Herbicidal ratio of 90% or more (almost completely withered)). In addition, the “c: corn, effect on crop grade” value in the data set on corn is recorded as 5 (Herbicidal ratio of 90% or more (almost completely withered)). For the same compound, the “g: rapeseed, effect on crop grade” value in the data set on rapeseed was 4 (Herbicidal ratio of 70% or higher and lower than 90%). Besides, the “Herbicidal effect grade, A: Echinochloa oryzacola Vasing.” value in [2] is listed as 5 (Herbicidal ratio of 90% or more (almost completely withered)). In the data set on Alopecurus myosuroides [3], the “J: Alopecurus myosuroides, herbicidal effect grade” value is 5 (Herbicidal ratio of 90% or more (almost completely withered)). For the same compound, in the data set with Apera spica-venti [4] (setting [9]), the “Herbicidal effect grade, L: Apera spica-venti” value is reported as 5 (Herbicidal ratio of 90% or more (almost completely withered)). The “E herbicidal effect grade” value in the data set with Cyperus difformis was 5 (Herbicidal ratio of 90% or more (almost completely withered)). Moreover, in the data set on Alopecurus myosuroides [5] (setting [9]), the “Herbicidal effect grade, J: Alopecurus myosuroides” value is 5 (Herbicidal ratio of 90% or more (almost completely withered)). Also, the “Herbicidal effect grade, I: Avena fatua” value in the data set on Avena fatua (setting [9]) is 3 (Herbicidal ratio of 40% or higher and lower than 70%). In addition, in the data set on Apera spica-venti [6], the “L: Apera spica-venti, herbicidal effect grade” value is 5 (Herbicidal ratio of 90% or more (almost completely withered)). Besides, in the data set with Abutilon theophrasti (setting [9]), the “Herbicidal effect grade, M: Abutilon theophrasti” value was 3 (Herbicidal ratio of 40% or higher and lower than 70%). For the same compound, the “B (Scirpus juncoides) herbicidal effect grade” value in the data set with Scirpus juncoides [7] is given as 5 (Herbicidal ratio of 90% or more (almost completely withered)). The “Herbicidal effect grade, R: Veronica persica” value with Veronica persica (setting [9]) is reported as 0 (Herbicidal ratio of 5% or lower (almost no effect)). The “Herbicidal effect grade, G: Setaria viridis” value in the data set with Setaria viridis (setting [9]) is given as 5 (Herbicidal ratio of 90% or more (almost completely withered)). Besides, in the data set on Chenopodium album (setting [9]), the “Herbicidal effect grade, O: Chenopodium album” value is given as 0 (Herbicidal ratio of 5% or lower (almost no effect)). Moreover, the “H (Echinochloa crus-galli var. crus-galli) herbicidal effect grade” value in data set [8] was 5 (Herbicidal ratio of 90% or more (almost completely withered)).
Regarding `CC(CC1CC(O)=C(c2c(C)cc(C)cc2C)C1=O)=NOCC(N)=O` (stereo not shown) [1-124], the “Herbicidal effect grade, B” value with Scirpus juncoides [1] and in the data set with Scirpus juncoides [7] was 0 (Herbicidal ratio of 5% or lower (almost no effect)) throughout. For the same compound, the “c: corn, effect on crop (criteria 0-5)” value with corn is 4 (Herbicidal ratio of 70% or higher and lower than 90%). The “g: rapeseed, effect on crop (criteria 0-5)” value with rapeseed was 4 (Herbicidal ratio of 70% or higher and lower than 90%). In addition, in data set [2], the “Herbicidal effect grade, A: Echinochloa oryzacola Vasing.” value is 2 (Herbicidal ratio of 20% or higher and lower than 40%). Moreover, the “J: Alopecurus myosuroides, herbicidal effect (criteria 0-5)” value in the data set on Alopecurus myosuroides [3] is 3 (Herbicidal ratio of 40% or higher and lower than 70%). Also, the “L: Apera spica-venti, herbicidal effect grade” value in the data set on Apera spica-venti [4] (320 g/ha) is 0 (Herbicidal ratio of 5% or lower (almost no effect)). For the same compound, the “herbicidal effect on E, grade 0-5” value in the data set on Cyperus difformis is 0 (Herbicidal ratio of 5% or lower (almost no effect)). For the same compound, the “J: Alopecurus myosuroides, herbicidal effect grade” value with Alopecurus myosuroides [5] (320 g/ha) was 2 (Herbicidal ratio of 20% or higher and lower than 40%). Besides, the “I: Avena fatua, herbicidal effect grade” value in the data set on Avena fatua (320 g/ha) was 0 (Herbicidal ratio of 5% or lower (almost no effect)). Besides, the “L: Apera spica-venti, herbicidal effect (criteria 0-5)” value with Apera spica-venti [6] was 3 (Herbicidal ratio of 40% or higher and lower than 70%). Moreover, in the data set with Abutilon theophrasti (320 g/ha), the “M: Abutilon theophrasti, herbicidal effect grade” value is 0 (Herbicidal ratio of 5% or lower (almost no effect)). Besides, the “R: Veronica persica, herbicidal effect grade” value in the data set with Veronica persica (320 g/ha) was 0 (Herbicidal ratio of 5% or lower (almost no effect)). The “G: Setaria viridis, herbicidal effect grade” value in the data set on Setaria viridis (320 g/ha) is 3 (Herbicidal ratio of 40% or higher and lower than 70%). The “O: Chenopodium album, herbicidal effect grade” value in the data set on Chenopodium album (320 g/ha) was 0 (Herbicidal ratio of 5% or lower (almost no effect)). In addition, in data set [8], the “herbicidal effect on H (Echinochloa crus-galli var. crus-galli), grade 0-5” value is listed as 5 (Herbicidal ratio of 90% or more (almost completely withered)).
In the case of `CC(CC1CC(OC(=O)COc2ccccc2)=C(c2c(C)cc(-n3cc(Cl)cn3)cc2C)C1=O)=NOCC(F)(F)F` (stereo not shown) [9-012], the “Herbicidal effect grade, B” value with Scirpus juncoides [1] was 4 (Herbicidal ratio of 70% or higher and lower than 90%). The “c: corn, effect on crop grade” value in the data set on corn is 5 (Herbicidal ratio of 90% or more (almost completely withered)). Moreover, the “g: rapeseed, effect on crop grade” value in the data set with rapeseed is 3 (Herbicidal ratio of 40% or higher and lower than 70%). For the same compound, the “Herbicidal effect grade, A: Echinochloa oryzacola Vasing.” value in data set [2] is 5 (Herbicidal ratio of 90% or more (almost completely withered)). Moreover, in the data set on Alopecurus myosuroides [3], the “J: Alopecurus myosuroides, herbicidal effect grade” value is reported as 5 (Herbicidal ratio of 90% or more (almost completely withered)). The “Herbicidal effect grade, L: Apera spica-venti” value in the data set with Apera spica-venti [4] (setting [9]) is recorded as 5 (Herbicidal ratio of 90% or more (almost completely withered)). For the same compound, in the data set on Cyperus difformis, the “E herbicidal effect grade” value is 5 (Herbicidal ratio of 90% or more (almost completely withered)). Further, the “Herbicidal effect grade, J: Alopecurus myosuroides” value in the data set with Alopecurus myosuroides [5] (setting [9]) is 5 (Herbicidal ratio of 90% or more (almost completely withered)). For the same compound, the “Herbicidal effect grade, I: Avena fatua” value in the data set on Avena fatua (setting [9]) is 0 (Herbicidal ratio of 5% or lower (almost no effect)). In addition, the “L: Apera spica-venti, herbicidal effect grade” value with Apera spica-venti [6] was 5 (Herbicidal ratio of 90% or more (almost completely withered)). For the same compound, the “Herbicidal effect grade, M: Abutilon theophrasti” value in the data set on Abutilon theophrasti (setting [9]) was 0 (Herbicidal ratio of 5% or lower (almost no effect)). Besides, the “B (Scirpus juncoides) herbicidal effect grade” value in the data set with Scirpus juncoides [7] is 4 (Herbicidal ratio of 70% or higher and lower than 90%). Moreover, in the data set with Veronica persica (setting [9]), the “Herbicidal effect grade, R: Veronica persica” value was 2 (Herbicidal ratio of 20% or higher and lower than 40%). For the same compound, the “Herbicidal effect grade, G: Setaria viridis” value with Setaria viridis (setting [9]) is listed as 5 (Herbicidal ratio of 90% or more (almost completely withered)). Moreover, in the data set with Chenopodium album (setting [9]), the “Herbicidal effect grade, O: Chenopodium album” value is given as 0 (Herbicidal ratio of 5% or lower (almost no effect)). For the same compound, the “H (Echinochloa crus-galli var. crus-galli) herbicidal effect grade” value in data set [8] is 5 (Herbicidal ratio of 90% or more (almost completely withered)).
